Read-outs that look alike come from different tables or passages of the source.
Key:
[1] = tested on: AR protein in RPE cells (BCRP-mediated transport); test: Immunocytochemical analysis of nuclear-localized AR protein in RPE cells; format: cell-based, rat; conditions: 50 μmol/L novobiocin and/or 3 nmol/L dihydrotestosterone, 14 hours; immunocytochemistry, n>200 cells/group
[2] = molecular target: T1, BCRP (Rattus norvegicus, UniProt Q80W57); format: cell-based; conditions: Mx-RPE cells
T1 construct: the Mx-RPE cells have a higher level of BCRP activity than RPE cells; endogenous in cells; host or cells: Mx-RPE (mitoxantrone-resistant subline of rat RPE cells)
T1 sequence (Q80W57 1-657): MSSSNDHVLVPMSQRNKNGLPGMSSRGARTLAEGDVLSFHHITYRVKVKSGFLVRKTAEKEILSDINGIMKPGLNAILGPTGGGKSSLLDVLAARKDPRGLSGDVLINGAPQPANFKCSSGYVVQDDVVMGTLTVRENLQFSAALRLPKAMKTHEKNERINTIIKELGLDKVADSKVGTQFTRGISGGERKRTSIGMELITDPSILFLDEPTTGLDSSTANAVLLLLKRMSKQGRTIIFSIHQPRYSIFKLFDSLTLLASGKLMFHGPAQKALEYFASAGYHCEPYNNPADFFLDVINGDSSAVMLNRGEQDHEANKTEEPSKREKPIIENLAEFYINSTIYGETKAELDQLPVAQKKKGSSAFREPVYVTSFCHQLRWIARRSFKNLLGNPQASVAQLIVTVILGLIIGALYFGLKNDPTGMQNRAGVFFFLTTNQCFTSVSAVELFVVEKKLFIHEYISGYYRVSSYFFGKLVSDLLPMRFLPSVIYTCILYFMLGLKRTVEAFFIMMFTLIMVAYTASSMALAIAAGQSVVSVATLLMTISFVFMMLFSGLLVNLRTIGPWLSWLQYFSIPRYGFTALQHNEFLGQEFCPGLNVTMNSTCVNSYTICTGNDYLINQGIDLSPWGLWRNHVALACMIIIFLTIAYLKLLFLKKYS
Excerpt: (§1) Data for Hoechst 33342 efflux represent two independent experiments (n>1,000 cells, *** P<0.0001).
Rat prostate progenitor (stem cell-like) cell lines (RPE, DP2, DP3, and DP4) were established from regenerating prostates of Fischer-344 rats and were maintained in prostate growth media (Presnell et al., Prostate Cancer Prostatic Dis (1999); 2:257-63) supplemented with 2% fetal bovine serum (FBS; Hyclone, Logan, UT) without androgen supplementation. […] A subpopulation of RPE cells was selected for resistance to mitoxantrone (Mx-RPE) by continuous culture in increasing concentrations of mitoxantrone (0.2-4 μmol/L; Sigma).
Additionally, novobiocin and fumitremorgin C were compared in RPE cells as inhibitors of BCRP-mediated efflux of Hoechst 33342, the marker utilized to identify the side population phenotype of stem cells. Fumitremorgin C is a specific inhibitor for BCRP-mediated transport. […] The moderate increase in nuclear Hoechst 33342 dye in RPE cells with inhibited BCRP function reflects a combination of the limited dynamic range of digital imaging technology and the constitutive expression of MDR-1 in the RPE cells (data not shown) because MDR-1 also effectively transports Hoechst 33342 dye; however, novobiocin and fumitremorgin C inhibit only the BCRP-mediated component of Hoechst efflux, not MDR-1 function (Doyle et al., Oncogene (2003); 22:7340-58; Shiozawa et al., Int. J. Cancer (2004); 108:146-51).

[3] = molecular target: T1, BCRP; format: cell-based; conditions: RPE cells
Excerpt: as §1
(§2) Additionally, novobiocin and fumitremorgin C were compared in RPE cells as inhibitors of BCRP-mediated efflux of Hoechst 33342, the marker utilized to identify the side population phenotype of stem cells. Fumitremorgin C is a specific inhibitor for BCRP-mediated transport.

[4] = limiting use in vivo; cited from earlier work
[5] = cited from earlier work
[6] = tested on: DP3 cell line; test: Intracellular [3H]dihydrotestosterone accumulation in BCRP-lacking DP3 control cell line; format: cell-based, rat; conditions: DP3 cell line (lacks BCRP)
Excerpt: as §2

[7] = tested on: AR protein in RPE cells (BCRP function); test: Immunoblot analysis of AR protein in RPE cell lysates; format: cell-based, rat; conditions: 50 μmol/L novobiocin and/or 3 nmol/L dihydrotestosterone; normalized to actin
[8] = tested on: TRAMP mice; test: Foci of SV40Tag+ cells in prostates of castrated TRAMP mice treated with novobiocin; format: in vivo, mouse; conditions: novobiocin 25 mg/kg/5 times a week
Excerpt: In this model, the PB-SV40 large T antigen transgene (SV40Tag) is expressed specifically in the epithelial cells of the murine prostate. Cells expressing the SV40Tag transgene can be detected by immunohistological methods using labeled monoclonal antibodies to SV40Tag. Adenocarcinoma of the prostate in TRAMP mice arises as early as eight weeks of age and is characterized by tumor cells that uniformly express high levels of AR and that regress upon castration. In contrast, poorly differentiated neuroendocrine-like carcinomas in TRAMP mice are characterized by expression of the neuroendocrine marker synaptophysin, and an absence, or weak and heterogeneous expression of AR. Neuroendocrine-like carcinomas are rare in young TRAMP mice, but arise rapidly in mice that are castrated between 12 and 14 weeks of age (Kaplan-Lefko et al., Prostate (2003); 55:219-37; Johnson et al., Prostate (2005); 62:322-38).
Treatment of the TRAMP mice with novobiocin (25 mg/kg/5 times a week), or saline (physiologic saline/5 times a week), was initiated at 13 weeks of age and all mice were castrated at 14 weeks of age (1 week following initiation of treatment). TRAMP mice were treated until 19 weeks of age, at which time the prostates, lymph nodes, small intestine, and liver were harvested and processed for analysis using standard techniques. […]

Compound	increase in the level of nuclear-localized AR in RPE cells [1] [fold]	increase in intracellular levels of [3H]dihydrotestosterone ([2]; 10 μmol/L fumitremorgin C) [fold]	increase in nuclear Hoechst 33342 compared with the DMSO control ([3]; 10 μmol/L fumitremorgin C) [fold]	neurotoxicity [4]	increase in intracellular levels of [3H]dihydrotestosterone ([2]; 5 mmol/L novobiocin) [fold]	increase in intracellular levels of [3H]dihydrotestosterone ([2]; 10 mmol/L novobiocin) [fold]	increase in retention of Hoechst 33342 ([3]; 5 mmol/L novobiocin) [fold]	increase in retention of Hoechst 33342 ([3]; 10 mmol/L novobiocin) [fold]	toxicity in humans [5]	effect on the level of accumulation of intracellular [3H]dihydrotestosterone [6]	increase of AR protein in RPE cells (immunoblot) [7] [fold]	establishment of recurrent growth in TRAMP [8]	#Foci/Animal, pattern: >10 cells Differentiated ([8]; 13 to 19 weeks of age)
C[C@]12CCC(=O)C[C@@H]1CC[C@@H]1[C@@H]2CC[C@]2(C)[C@@H](O)CC[C@@H]12 [dihydrotestosterone]	2.8												
COc1ccc2c3c([nH]c2c1)[C@H](C=C(C)C)N1C(=O)[C@@H]2CCCN2C(=O)[C@@H]1C3 [fumitremorgin C]		3.3	2.3	extremely neurotoxic									
CO[C@@H]1[C@@H](OC(N)=O)[C@@H](O)[C@H](Oc2ccc3c(O)c(NC(=O)c4ccc(O)c(CC=C(C)C)c4)c(=O)oc3c2C)OC1(C)C [novobiocin]	2.4				2.4	5.5	1.2	1.45	well tolerated toxicity in humans	no effect	7	inhibited establishment of recurrent growth	significant increase

Source: patent US20060233809A1, “Method for treating prostate conditions” (priority 2005, published 2006)
